The values below come from patent US9282743B2, “Chemical compounds” (Syngenta Participations AG, priority 2011, dated 2016).

What is called melting point is the temperature of the solid-liquid transition.

Series [1] concerns Echinochloa crus-galli (ECHCG). Kind of series: Example B7: pre application on weeds, ECHCG. Format: in vivo. Particulars: 312 h, pre-emergence spray one day after sowing, evaluated after 13 days, read-out: Pre application on weeds, ECHCG (100=total damage to plant; 0=no damage to plant). The method, then: (§1) Lolium perenne (LOLPE), Alopecurus myosuroides (ALOMY), Echinochloa crus-galli (ECHCG) and Avena fatua (AVEFA). Activity Against Weeds Seeds of a variety of test species were sown in standard soil in pots. After cultivation for one day under controlled conditions in a glasshouse (at 24/16° C., day/night; 14 hours light; 65% humidity), the plants were sprayed with an aqueous spray solution derived from the formulation of the technical active ingredient in acetone/water (50:50) solution containing 0.5% Tween 20 (polyoxyethelyene sorbitan monolaurate, CAS RN 9005-64-5). The test plants were then grown in a glasshouse under controlled conditions in a glasshouse (at 24/16° C., day/night; 14 hours light; 65% humidity) and watered twice daily. After 13 days, the test was evaluated (100=total damage to plant; 0=no damage to plant).

Series [2] relates to Avena fatua (AVEFA). Put plainly: Example B6: post application on weeds, AVEFA. It is filed as in vivo. Particulars: 312 h, after 13 days, 100 = total damage, 0 = no damage, read-out: AVEFA damage to plant. The method, then: as §1, with “8 days” for “one day”
Series [3] deals with Lolium perenne (LOLPE). Put plainly: Example B7: pre application on weeds, LOLPE. Format: in vivo. Particulars: 312 h, pre-emergence spray one day after sowing, evaluated after 13 days, read-out: Pre application on weeds, LOLPE (100=total damage to plant; 0=no damage to plant). The protocol:
as §1

For series [4], the system named is Alopecurus myosuroides (ALOMY). Kind of series: Example B6: post application on weeds, ALOMY. It is filed as in vivo. The following applies: 312 h, after 13 days, 100 = total damage, 0 = no damage, read-out: ALOMY damage to plant. The method, then:
as §1, with “8 days” for “one day”

The test system of another series is Winter wheat (TRZAW). Put plainly: Example B8: post application on wheat, with and without safener cloquintocet-mexyl. The following applies: after 13 days, 100 = total damage, 0 = no damage. It is filed as in vivo. The method, then: Application with Safener (Cloquintocet-Mexyl) Winter wheat seeds with a seed treatment of cloquintocet-mexyl applied at a rate of 0.5 g/kg seeds were sown in standard soil in pots. After cultivation for 8 days under controlled conditions in a glasshouse (at 24/16° C., day/night; 14 hours light; 65% humidity), the plants were sprayed with an aqueous spray solution derived from the formulation of the technical active ingredient in acetone/water (50:50) solution containing 0.5% Tween 20 (polyoxyethelyene sorbitan monolaurate, CAS RN 9005-64-5). The test plants were then grown in a glasshouse under controlled conditions in a glasshouse (at 24/16° C., day/night; 14 hours light; 65% humidity) and watered twice daily. After 13 days, the test was evaluated (100=total damage to plant; 0=no damage to plant).

Series [5] has as its system Echinochloa crus-galli (ECHCG). Put plainly: Example B6: post application on weeds, ECHCG. The following applies: 312 h, after 13 days, 100 = total damage, 0 = no damage, read-out: ECHCG damage to plant. Format: in vivo. The method, then: as §1, with “8 days” for “one day”
The test system of series [6] is Avena fatua (AVEFA). Put plainly: Example B7: pre application on weeds, AVEFA. It is filed as in vivo. The following applies: 312 h, pre-emergence spray one day after sowing, evaluated after 13 days, read-out: Pre application on weeds, AVEFA (100=total damage to plant; 0=no damage to plant). The method, then: as §1
The test system of series [7] is Alopecurus myosuroides (ALOMY). Put plainly: Example B7: pre application on weeds, ALOMY. Format: in vivo. Particulars: 312 h, pre-emergence spray one day after sowing, evaluated after 13 days, read-out: Pre application on weeds, ALOMY (100=total damage to plant; 0=no damage to plant). The protocol: as §1
In series [8] the test system is Lolium perenne (LOLPE). Kind of series: Example B6: post application on weeds, LOLPE. It is filed as in vivo. Particulars: 312 h, after 13 days, 100 = total damage, 0 = no damage, read-out: LOLPE damage to plant. The protocol: as §1, with “8 days” for “one day”

`CCOC(=O)Oc1c(-c2c(Cl)cc(C)cc2OC)c(=O)n2n1CCN(OC)CC2` [Compound P1.20] came in with a melting point of 138 to 139 °C.

For `CCOC(=O)Oc1c(-c2cc(C)c(C)cc2C)c(=O)n2n1CCN(OC)CC2` [Compound P1.21], the melting point lay within 117 to 118 °C.

On to `CCc1cc(C)cc(CC)c1C1C(=O)N2CCN(OC)CCN2C1=O` [Compound P2.3, 8-(2,6-Diethyl-4-methyl-phenyl)-3-methoxy-tetrahydro-pyrazolo[1,2-a][1,2,5]triazepine-7,9-dione], for which the melting point is 240 °C (dec.). The pest or weed control at 250 g/ha in series [1] worked out at 100%. For the same compound, the pest or weed control at 250 g/ha in the series with Avena fatua (AVEFA) [2] was 100%. Also, in the series with Lolium perenne (LOLPE) [3], the pest or weed control at 250 g/ha amounted to 100%. Further, the pest or weed control at 250 g/ha in series [4] is 100%. For the same compound, the “TRZAW damage to plant” value with Winter wheat (TRZAW) (62.5 g/ha + 0.5 g/kg seeds cloquintocet-mexyl) is given as 0. In the series on Winter wheat (TRZAW) (62.5 g/ha, without safener), the “TRZAW damage to plant” value is 60. The pest or weed control at 250 g/ha in series [5] was 100%. Further, the pest or weed control at 250 g/ha in the series with Avena fatua (AVEFA) [6] amounted to 90%. Also, the pest or weed control at 250 g/ha in [7] came out at 100%. In the series with Lolium perenne (LOLPE) [8], the pest or weed control at 250 g/ha is 100%.

Consider `CON1CCN2C(=O)C(c3cc(-c4ccc(Cl)cc4)ccc3C)C(=O)N2CC1` [Compound P2.7], for which the melting point lay in the range of 248 to 250 °C.

Consider `COc1cc(C)cc(C)c1C1C(=O)N2CCN(OC)CCN2C1=O` [Compound P2.12], for which the pest or weed control at 250 g/ha in series [1] turned out to be 60%; with Avena fatua (AVEFA) [2] it was 80%; in the series on Lolium perenne (LOLPE) [3], 70%; in series [4] it was 80%; in series [5], 90%; with Avena fatua (AVEFA) [6] it was 60%. Moreover, the pest or weed control at 250 g/ha (in series [7]; in the series on Lolium perenne (LOLPE) [8]) was 80% each time. Further, the “TRZAW damage to plant” value is recorded as 30 in the series on Winter wheat (TRZAW) (250 g/ha + 0.5 g/kg seeds cloquintocet-mexyl) and 70 with Winter wheat (TRZAW) (250 g/ha, without safener).

In turn, `CON1CCN2C(=O)C(c3cc(C)c(C)cc3C)C(=O)N2CC1` [Compound P2.19] came in with a melting point of 171 to 173 °C.

With `CON1CCN2C(=O)C(c3c(C)cc(-c4ccc(Cl)cc4)cc3C)C(=O)N2CC1` [Compound P2.20], the melting point was 258 to 260 °C.

As to `CON1CCN2C(=O)C(c3c(C)cc(-c4ccc(F)cc4)cc3C)C(=O)N2CC1` [Compound P2.21], the melting point lay within 292 to 294 °C.
